# In US20060045892A1, “Cosmetic compositions” (priority 2004, published 2006):
# System: skin redness, skin inflammation, irritation and skin aging
# Assay: Materials tested for usefulness in the present invention (improving skin appearance, reducing skin redness, inflammation, irritation)
# Format: in vivo, humans
# Conditions: topical; related materials tested
row,SMILES,usefulness (activity) in the present invention
1,"OCC1(CO)CC2C=CC1C2 (stereo not drawn) [5-norborene-2,2-dimethanol]",do not work
2,CC(=O)OC1CCCCC1 [cyclohexyl acetate],not to be useful
3,CC1CCC(C(C)C)C(O)C1 (stereo not drawn) [menthol],not to be useful
4,ClC1CCCCC1 [cyclohexyl chloride],not to be useful
5,"CC1(C)[C@H]2C[C@H]1[C@@](C)(O)[C@@H](O)C2 [(1R,2R,3S,5S-(−))-pinanediol]",do not work
6,OCCCCC1CCCCC1 [4-cyclohexyl-1-butanol],not to be useful
7,CC1(O)CCCCC1 [1-methylcyclohexanol],not to be useful
8,"OC1CCCC1O (stereo not drawn) [1,2-cyclopentanediol]",do not work
9,C1CCCCC1 [cyclohexane],not to be useful
10,O=C(O)C1CCCCC1 [cyclohexyl carboxylic acid],not to be useful
11,C1=CCCCC1 [cyclohexene],not to be useful

# System: skin
# Assay: Skin irritation by the applied material
# Format: in vivo, humans
# Conditions: topical
row,SMILES,irritation (reddening) of the skin to which it is applied
1,CC1CCC(C(C)C)C(O)C1 (stereo not drawn) [menthol],can irritate
